20 molecules from patent publication US20190152957A1, “PYRIDIN-3-YL ACETIC ACID DERIVATIVES AS INHIBITORS OF HUMAN IMMUNODEFICIENCY VIRUS REPLICATION” (ViiV HEALTHCARE UK (NO.5) LIMITED, priority 2016, published 2019) can be followed below.

The test relates to recombinant NL-RLuc virus (HIV NL4-3 with Renilla Luciferase gene) in MT-2 cells. The experiment in a line: Inhibition of HIV replication (NL-RLuc virus, luciferase readout in MT-2 cells). It is filed as cell-based. Conditions: MT2, 120 h; for pEC50: read-out: Activity; for EC50: read-out: EC50 μM. The source says: Inhibition of HIV Replication:
A recombinant NL-RLuc proviral clone was constructed in which a section of the nef gene from NL4-3 was replaced with the Renilla Luciferase gene. This virus is fully infectious and can undergo multiple cycles of replication in cell culture. In addition, the luciferous reporter provides a simple and easy method for quantitating the extent of virus growth and consequently, the antiviral activity of test compounds. The plasmid pNLRLuc contains the proviral NL-Rluc DNA cloned into pUC18 at the PvuII site. The NL-RLuc virus was prepared by transfection of 293T cells with the plasmid pNLRLuc. Transfections were performed using the LipofectAMINE PLUS kit from Invitrogen (Carlsbad, Calif.) according to the manufacturer and the virus generated was titered in MT-2 cells. For susceptibility analyses, the titrated virus was used to infect MT-2 cells in the presence of compound, and after 5 days of incubation, cells were processed and quantitated for virus growth by the amount of expressed luciferase. Assay media was RPMI 1640 supplemented with 10% heat inactivated fetal bovine serum (FBS), 100 units/ml penicillin G/100 units/ml streptomycin, 10 mM HEPES buffer pH 7.55 and 2 mM L-glutamine. The results from at least 2 experiments were used to calculate the EC50 values. Luciferase was quantitated using the Dual Luciferase kit from Promega (Madison, Wis.). Susceptibility of viruses to compounds was determined by incubation in the presence of serial dilutions of the compound. The 50% effective concentration (EC50) was calculated by using the exponential form of the median effect equation where (Fa)=1/[1+(ED50/drug conc.)^m](Johnson V A, Byington R T. Infectivity Assay. In Techniques in HIV Research. ed. Aldovini A, Walker BD. 71-76. New York: Stockton Press. 1990). Activity equal to A refers to a compound having an EC50≤100 nM, while B and C denote compounds having an EC50 between 100 nM and 1 uM (B) or >1 uM (C).

SMILES strings stand for the structures. pEC50: −log10 of the molar value. Where two headings read alike, the source gives them in different places.

In the case of `CCc1ncc(CN2CCc3cc(-c4c(C)nc(C)c([C@H](OC(C)(C)C)C(=O)O)c4N4CCC(C)(C)CC4)ccc3C2)[nH]1` [Compound 21, (S)-2-(tert-butoxy)-2-(4-(4,4-dimethylpiperidin-1-yl)-5-(2-((2-ethyl-1H-imidazol-5-yl)methyl)-1,2,3,4-tetrahydroisoquinolin-6-yl)-2,6-dimethylpyridin-3-yl)acetic acid], the pEC50 was < 6.00 and the EC50 is 1.54 µM.
As for `CCn1cc(CN2CCc3cc(-c4c(C)nc(C)c([C@H](OC(C)(C)C)C(=O)O)c4N4CCC(C)(C)CC4)ccc3C2)c(C)n1` [Compound 22, (S)-2-(tert-butoxy)-2-(4-(4,4-dimethylpiperidin-1-yl)-5-(2-((1-ethyl-3-methyl-1H-pyrazol-4-yl)methyl)-1,2,3,4-tetrahydroisoquinolin-6-yl)-2,6-dimethylpyridin-3-yl)acetic acid], the pEC50 is > 7.00.
Still for that read-out and setting: as for `Cc1noc(C)c1CN1CCc2cc(-c3c(C)nc(C)c([C@H](OC(C)(C)C)C(=O)O)c3N3CCC(C)(C)CC3)ccc2C1` [Compound 23, (S)-2-(tert-butoxy)-2-(5-(2-((3,5-dimethylisoxazol-4-yl)methyl)-1,2,3,4-tetrahydroisoquinolin-6-yl)-4-(4,4-dimethylpiperidin-1-yl)-2,6-dimethylpyridin-3-yl)acetic acid], the figure is > 7.00; as for `Cc1nc(C)c([C@H](OC(C)(C)C)C(=O)O)c(N2CCC(C)(C)CC2)c1-c1ccc2c(c1)CCN(Cc1nn(C)cc1Cl)C2` [Compound 24, (S)-2-(tert-butoxy)-2-(5-(2-((4-chloro-1-methyl-1H-pyrazol-3-yl)methyl)-1,2,3,4-tetrahydroisoquinolin-6-yl)-4-(4,4-dimethylpiperidin-1-yl)-2,6-dimethylpyridin-3-yl)acetic acid], > 7.00.
On to `Cc1nc(C)c([C@H](OC(C)(C)C)C(=O)O)c(N2CCC(C)(C)CC2)c1-c1ccc2c(c1)CCN(Cc1cc(-c3ccccc3)on1)C2` [Compound 25, (S)-2-(tert-butoxy)-2-(4-(4,4-dimethylpiperidin-1-yl)-2,6-dimethyl-5-(2-((5-phenylisoxazol-3-yl)methyl)-1,2,3,4-tetrahydroisoquinolin-6-yl)pyridin-3-yl)acetic acid], for which the pEC50 is > 7.00 and the EC50 came out at 0.012 µM.
As for `Cc1nc(C)c([C@H](OC(C)(C)C)C(=O)O)c(N2CCC(C)(C)CC2)c1-c1ccc2c(c1)CCN(Cc1ccn[nH]1)C2` [Compound 26, (S)-2-(5-(2-((1H-pyrazol-5-yl)methyl)-1,2,3,4-tetrahydroisoquinolin-6-yl)-4-(4,4-dimethylpiperidin-1-yl)-2,6-dimethylpyridin-3-yl)-2-(tert-butoxy)acetic acid], the pEC50 was > 7.00.
Same read-out and setting: as for `Cc1nc(C)c([C@H](OC(C)(C)C)C(=O)O)c(N2CCC(C)(C)CC2)c1-c1ccc2c(c1)CCN(Cc1c[nH]nn1)C2` [Compound 27, (S)-2-(5-(2-((1H-1,2,3-triazol-4-yl)methyl)-1,2,3,4-tetrahydroisoquinolin-6-yl)-4-(4,4-dimethylpiperidin-1-yl)-2,6-dimethylpyridin-3-yl)-2-(tert-butoxy)acetic acid], the figure is 6.00 to 7.00.
On the same count and under the same terms, as for `Cc1nc(C)c([C@H](OC(C)(C)C)C(=O)O)c(N2CCC(C)(C)CC2)c1-c1ccc2c(c1)CCN(Cc1ccnc(Cl)c1F)C2` [Compound 28, (S)-2-(tert-butoxy)-2-(5-(2-((2-chloro-3-fluoropyridin-4-yl)methyl)-1,2,3,4-tetrahydroisoquinolin-6-yl)-4-(4,4-dimethylpiperidin-1-yl)-2,6-dimethylpyridin-3-yl)acetic acid], the figure is > 7.00; as for `CCOc1ncccc1CN1CCc2cc(-c3c(C)nc(C)c([C@H](OC(C)(C)C)C(=O)O)c3N3CCC(C)(C)CC3)ccc2C1` [Compound 29, (S)-2-(tert-butoxy)-2-(4-(4,4-dimethylpiperidin-1-yl)-5-(2-((2-ethoxypyridin-3-yl)methyl)-1,2,3,4-tetrahydroisoquinolin-6-yl)-2,6-dimethylpyridin-3-yl)acetic acid], > 7.00.
Consider `COc1cccc(CN2CCc3cc(-c4c(C)nc(C)c([C@H](OC(C)(C)C)C(=O)O)c4N4CCC(C)(C)CC4)ccc3C2)n1` [Compound 30, (S)-2-(tert-butoxy)-2-(4-(4,4-dimethylpiperidin-1-yl)-5-(2-((6-methoxypyridin-2-yl)methyl)-1,2,3,4-tetrahydroisoquinolin-6-yl)-2,6-dimethylpyridin-3-yl)acetic acid], for which the pEC50 is > 7.00.
Same read-out and setting: as for `COc1cc(CN2CCc3cc(-c4c(C)nc(C)c([C@H](OC(C)(C)C)C(=O)O)c4N4CCC(C)(C)CC4)ccc3C2)ccn1` [Compound 31, (S)-2-(tert-butoxy)-2-(4-(4,4-dimethylpiperidin-1-yl)-5-(2-((2-methoxypyridin-4-yl)methyl)-1,2,3,4-tetrahydroisoquinolin-6-yl)-2,6-dimethylpyridin-3-yl)acetic acid], the figure is > 7.00; as for `Cc1nc(C)c([C@H](OC(C)(C)C)C(=O)O)c(N2CCC(C)(C)CC2)c1-c1ccc2c(c1)CCN(Cc1ccc(Cl)nc1Cl)C2` [Compound 32, (S)-2-(tert-butoxy)-2-(5-(2-((2,6-dichloropyridin-3-yl)methyl)-1,2,3,4-tetrahydroisoquinolin-6-yl)-4-(4,4-dimethylpiperidin-1-yl)-2,6-dimethylpyridin-3-yl)acetic acid], > 7.00.
Consider `COc1ncc(CN2CCc3cc(-c4c(C)nc(C)c([C@H](OC(C)(C)C)C(=O)O)c4N4CCC(C)(C)CC4)ccc3C2)cn1` [Compound 33, (S)-2-(tert-butoxy)-2-(4-(4,4-dimethylpiperidin-1-yl)-5-(2-((2-methoxypyrimidin-5-yl)methyl)-1,2,3,4-tetrahydroisoquinolin-6-yl)-2,6-dimethylpyridin-3-yl)acetic acid], for which the pEC50 was > 7.00 and the EC50 came to 0.008 µM.
In the case of `Cc1nc(C)c([C@H](OC(C)(C)C)C(=O)O)c(N2CCC(C)(C)CC2)c1-c1ccc2c(c1)CCN(Cc1ccc(C(F)(F)F)nc1)C2` [Compound 34, (S)-2-(tert-butoxy)-2-(4-(4,4-dimethylpiperidin-1-yl)-2,6-dimethyl-5-(2-((6-(trifluoromethyl)pyridin-3-yl)methyl)-1,2,3,4-tetrahydroisoquinolin-6-yl)pyridin-3-yl)acetic acid], the pEC50 is > 7.00.
The same measure, in the same setting: as for `COc1ncccc1CN1CCc2cc(-c3c(C)nc(C)c([C@H](OC(C)(C)C)C(=O)O)c3N3CCC(C)(C)CC3)ccc2C1` [Compound 35, (S)-2-(tert-butoxy)-2-(4-(4,4-dimethylpiperidin-1-yl)-5-(2-((2-methoxypyridin-3-yl)methyl)-1,2,3,4-tetrahydroisoquinolin-6-yl)-2,6-dimethylpyridin-3-yl)acetic acid], the figure is > 7.00; as for `Cc1nc(C)c([C@H](OC(C)(C)C)C(=O)O)c(N2CCC(C)(C)CC2)c1-c1ccc2c(c1)CCN(Cc1cccnn1)C2` [Compound 36, (S)-2-(tert-butoxy)-2-(4-(4,4-dimethylpiperidin-1-yl)-2,6-dimethyl-5-(2-(pyridazin-3-ylmethyl)-1,2,3,4-tetrahydroisoquinolin-6-yl)pyridin-3-yl)acetic acid], > 7.00; as for `Cc1nc(C)c([C@H](OC(C)(C)C)C(=O)O)c(N2CCC(C)(C)CC2)c1-c1ccc2c(c1)CCN(Cc1ncco1)C2` [Compound 37, (S)-2-(tert-butoxy)-2-(4-(4,4-dimethylpiperidin-1-yl)-2,6-dimethyl-5-(2-(oxazol-2-ylmethyl)-1,2,3,4-tetrahydroisoquinolin-6-yl)pyridin-3-yl)acetic acid], > 7.00.
The same measure, in the same setting: as for `Cc1nc(C)c([C@H](OC(C)(C)C)C(=O)O)c(N2CCC(C)(C)CC2)c1-c1ccc2c(c1)CCN(Cc1nccn1C)C2` [Compound 38, (S)-2-(tert-butoxy)-2-(4-(4,4-dimethylpiperidin-1-yl)-2,6-dimethyl-5-(2-((1-methyl-1H-imidazol-2-yl)methyl)-1,2,3,4-tetrahydroisoquinolin-6-yl)pyridin-3-yl)acetic acid], the figure is > 7.00.
As to `Cc1nc[nH]c1CN1CCc2cc(-c3c(C)nc(C)c([C@H](OC(C)(C)C)C(=O)O)c3N3CCC(C)(C)CC3)ccc2C1` [Compound 39, (S)-2-(tert-butoxy)-2-(4-(4,4-dimethylpiperidin-1-yl)-2,6-dimethyl-5-(2-((4-methyl-1H-imidazol-5-yl)methyl)-1,2,3,4-tetrahydroisoquinolin-6-yl)pyridin-3-yl)acetic acid], the pEC50 is 6.00 to 7.00 and the half-maximal effective concentration (EC50) is 0.231 µM.
Consider `Cc1nc(C)c([C@H](OC(C)(C)C)C(=O)O)c(N2CCC(C)(C)CC2)c1-c1ccc2c(c1)CCN(Cc1c[nH]cn1)C2` [Compound 40, (S)-2-(5-(2-((1H-imidazol-4-yl)methyl)-1,2,3,4-tetrahydroisoquinolin-6-yl)-4-(4,4-dimethylpiperidin-1-yl)-2,6-dimethylpyridin-3-yl)-2-(tert-butoxy)acetic acid], for which the pEC50 was < 6.00.

For orientation: EC50 means the concentration that produces a half-maximal response.
